Assay results taken from patent US10183935B2, “Benzamide derivatives as modulators of the follicle stimulating hormone” (Merck Patent GmbH, priority 2012, dated 2019).

Legend:
FSHR = target: T1, FSHR (Homo sapiens, UniProt P23945); test: EC50 of Cyclic AMP Production in CHO FSHR Cells+EC20 FSH (Assay A); assay type: cell-based; conditions: for EC50: cAMP HTRF
T1 construct: expressed in transfected cells; host or cells: CHO (Cho-FSHR-LUC-1-1-43)
T1 sequence (P23945 18-695): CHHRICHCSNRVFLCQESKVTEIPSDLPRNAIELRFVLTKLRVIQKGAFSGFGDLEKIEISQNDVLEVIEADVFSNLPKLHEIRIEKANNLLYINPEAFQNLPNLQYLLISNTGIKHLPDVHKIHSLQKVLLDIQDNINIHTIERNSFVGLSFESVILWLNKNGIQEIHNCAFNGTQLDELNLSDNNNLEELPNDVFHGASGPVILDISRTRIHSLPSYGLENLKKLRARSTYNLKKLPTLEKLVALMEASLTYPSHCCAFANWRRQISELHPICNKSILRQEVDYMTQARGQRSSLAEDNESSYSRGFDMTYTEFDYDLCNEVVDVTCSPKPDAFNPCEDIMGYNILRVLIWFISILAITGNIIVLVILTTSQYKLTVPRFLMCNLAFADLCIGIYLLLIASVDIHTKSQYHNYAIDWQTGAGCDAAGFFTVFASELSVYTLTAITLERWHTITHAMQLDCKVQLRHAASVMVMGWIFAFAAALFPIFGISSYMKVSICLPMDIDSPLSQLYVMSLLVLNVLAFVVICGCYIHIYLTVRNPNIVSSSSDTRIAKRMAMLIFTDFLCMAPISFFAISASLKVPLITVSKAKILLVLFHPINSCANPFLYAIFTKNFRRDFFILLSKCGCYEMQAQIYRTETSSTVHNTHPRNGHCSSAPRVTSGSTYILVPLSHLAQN
Protocol: Example 17: EC50 of Cyclic AMP Production in CHO FSHR Cells+EC20 FSH (Assay A)
2500 Cho-FSHR-LUC-1-1-43 cells were plated per well in 5 μl of phenol red free DMEM/F12+1% FBS. Cells were plated in 384 well, solid white low volume plates (Greiner 784075) by Multidrop. Cells were assayed by adding 100 μl of 2×EC20 FSH/IBMX in DMEM/F12+0.1% BSA) by Multidrop to 2 μl of test compound stamped in 384 well plates (compounds are diluted 1:50). The final FSH concentration was […], and the final IBMX concentration was 200 μM. The compound plate map was as follows: Column 1: 2 μl of DMSO; Column 2: 2 μl of DMSO; Columns 3-12 and 13-24: 2 μl of test compound, diluted 1:4 in 100% DMSO, or 2 μl of FSH, diluted 1:4 in DMEM/F12+0.1% BSA. The starting concentration for FSH was 50 nM (final concentration was 0.5 nM). Furthermore, Column 23 contained 2 μl of EC100 FSH reference (100×) (diluted in DMEM/F12+0.1% BSA) at a final concentration of 0.5 nM, and Column 24 contained 2 μl of 1 mM AS707664/2 reference compound 2.5 μl of compound+EC20 FSH mixture were transferred to cell plates (1:2 dilution into 5 μl of cell media) The plates were incubated at 37° C. for 1 h. 10 μl of mixed HTRF (CisBio #62AM4PEC) reagents were added per well and incubated at room temperature for 1 h. The plates were read on Envision using the cAMP HTRF—low volume 384 well protocol. The readout was the calculated fluorescence ratio (665 nm/620 nm). Values given in percent (%) indicate the percental effect (response) at a certain concentration of agonist relative to the maximum response of the FSH standard.

Rat Granulosa = Rat Granulosa EC50 FSH (Assay B); assay type: cell-based; conditions: rat granulosa cells
Protocol: Example 18: Rat Granulosa EC50 FSH (Assay B)
The assay was performed pursuant to the teaching of Yanofsky et al. (2006) Allosteric activation of the follicle-stimulating hormone (FSH) receptor by selective, nonpeptide agonists. JBC 281(19): 13226-13233, which is incorporated by reference in the disclosure of the invention.

SMILES | EC50 (FSHR) [nM] | EC50 (Rat Granulosa) [nM] | other results
Cc1ccccc1N1CCN(c2cc3c(cc2NC(=O)c2ccco2)C(=O)N(Cc2cccc(CN(C)C)c2)CC3)CC1 | 1000 to 5000 |  | 
Cc1cccnc1N1CCN(c2cc(Cl)c(C(=O)NCCCN3CCOC3=O)cc2NC(=O)c2coc(C3CC3)n2)CC1 | < 100 | 100 to 1000 | 
Cc1ccccc1N1CCN(c2cc(F)c(C(=O)NCCCN3CCCC3=O)cc2NC(=O)c2coc(C3CC3)n2)CC1 | 100 to 1000 |  | 
Cc1ccccc1N1CCN(c2cc(F)c(C(=O)N[C@@H]3CCC[C@H](C(=O)OC(C)(C)C)C3)cc2NC(=O)c2coc(C3CC3)n2)CC1 | 100 to 1000 | < 100 | 
Cc1ccccc1N1CCN(c2cc(F)c(C(=O)N[C@H]3CCC[C@@H](C(=O)OC(C)(C)C)C3)cc2NC(=O)c2coc(C3CC3)n2)CC1 | > 5000 |  | Assay B: percental effect (response) (Rat Granulosa; concentration not given): 11%
Cc1ccc(C)c(N2CCN(c3cc(Cl)c(C(=O)NCc4cccc(CN(C)C)c4)cc3NC(=O)c3coc(C4CC4)n3)CC2)c1 | 1000 to 5000 |  | 
Cc1ccccc1N1CCN(c2cc(Cl)c(C(=O)N[C@H]3CCC[C@H](O)[C@@H]3O)cc2NC(=O)c2coc(C3CC3)n2)CC1 | < 100 | 1000 to 5000 | 
Cc1ccccc1N1CCN(c2cc(O)c(C(=O)NCCCN3CCCC3=O)cc2NC(=O)c2coc(C3CC3)n2)CC1 | 100 to 1000 |  | 
Cc1ccccc1N1CCN(c2cc(N(C)C)c(C(=O)NCCCN3CCCC3=O)cc2NC(=O)c2ccco2)CC1 | 1000 to 5000 |  | 
Cc1ccccc1N1CCN(c2cc(Cl)c(C(=O)NCCCN3CCOC3=O)cc2NC(=O)c2coc(C3CC3)n2)CC1 | < 100 | 100 to 1000 | 
Cc1ccc(C)c(N2CCN(c3cc(Cl)c(C(=O)NCCCN4CCCC4=O)cc3NC(=O)c3coc(C4CC4)n3)CC2)c1 | 100 to 1000 |  | 
Cc1ccccc1N1CCN(c2cc(C3CC3)c(C(=O)NCCCN3CCCC3=O)cc2NC(=O)c2coc(C3CC3)n2)CC1 | 100 to 1000 |  | 
Cc1ccccc1N1CCN(c2cc(Cl)c(C(=O)NCCCN3CCCC3=O)cc2NC(=O)c2coc(C3CC3)n2)CC1 | < 100 | 100 to 1000 | 
Cc1ccccc1N1CCN(c2c(NC(=O)c3coc(C4CC4)n3)cc(C(=O)NCCCN3CCCC3=O)cc2C(F)(F)F)CC1 | 1000 to 5000 |  | 
CCOc1cc(N2CCN(c3ccccc3C)CC2)c(NC(=O)c2ccco2)cc1C(=O)NCCCN1CCCC1=O | 1000 to 5000 |  | 
Cc1ccc(F)cc1N1CCN(c2cc(Cl)c(C(=O)NCCCN3CCCC3=O)cc2NC(=O)c2coc(C3CC3)n2)CC1 | 100 to 1000 |  | 
Cc1ccccc1N1CCN(c2cc3c(cc2NC(=O)c2coc(C4CC4)n2)C(=O)N([C@H]2CCC[C@H](O)[C@@H]2O)CC3)CC1 | 100 to 1000 |  | 
Cc1ccccc1N1CCN(c2c(NC(=O)c3ccco3)cc(C(=O)NCCCN3CCCC3=O)cc2C(F)(F)F)CC1 |  |  | Emax at 3 µM (FSHR; @ 3 μM, read-out: Assay A: percental effect (response) relative to the maximum response of the FSH standard): 39%
Cc1ccccc1N1CCN(c2cc3c(cc2NC(=O)c2coc(C4CC4)n2)C(=O)N(CCCN2CCCC2=O)CC3)CC1 | < 100 |  | Assay B: percental effect (response) (Rat Granulosa; @ 5 μM): 133% @ 5 μM

The next lines start with results.

EC50 (FSHR) [nM] | EC50 (Rat Granulosa) [nM] | SMILES | other results
100 to 1000 | 1000 to 5000 | Cc1ccccc1N1CCN(c2cc(Cl)c(C(=O)NCCCc3nnn(C)n3)cc2NC(=O)c2coc(C3CC3)n2)CC1 | 
< 100 | 1000 to 5000 | COc1cc(N2CCN(c3ccccc3C)CC2)c(NC(=O)c2coc(C3CC3)n2)cc1C(=O)NCCCN1CCCC1=O | 
100 to 1000 | 1000 to 5000 | Cc1ccccc1N1CCN(c2cc(F)c(C(=O)NCCCN3CCOC3=O)cc2NC(=O)c2coc(C3CC3)n2)CC1 | 
< 100 |  | Cc1ccccc1N1CCN(c2cc(F)c(C(=O)N[C@@H]3CCC[C@H](C(=O)O)C3)cc2NC(=O)c2coc(C3CC3)n2)CC1 | 
100 to 1000 |  | Cc1ccccc1N1CCN(c2cc(Cl)c(C(=O)NCCC(C)(C)C(=O)O)cc2NC(=O)c2coc(C3CC3)n2)CC1 | Assay B: percental effect (response) (Rat Granulosa; @ 25 μM): 46% @ 25 μM
< 100 | 100 to 1000 | CCOc1cc(N2CCN(c3ccccc3C)CC2)c(NC(=O)c2coc(C3CC3)n2)cc1C(=O)NCCCN1CCCC1=O | 
100 to 1000 |  | Cc1ccc(C(=O)Nc2cc(C(=O)NCCCN3CCOC3=O)c(Cl)cc2N2CCN(c3ccccc3C)CC2)o1 | 
100 to 1000 |  | Cc1ccccc1N1CCN(c2cc(F)c(C(=O)N[C@H]3CCC[C@H](C(=O)OC(C)(C)C)C3)cc2NC(=O)c2coc(C3CC3)n2)CC1 | Assay B: percental effect (response) (Rat Granulosa; concentration not given): 39%
100 to 1000 | 100 to 1000 | COCCOc1cc(N2CCN(c3ccccc3C)CC2)c(NC(=O)c2coc(C3CC3)n2)cc1C(=O)NCCCN1CCCC1=O | 
< 100 |  | Cc1ccccc1N1CCN(c2cc3ccn(CCCN4CCOC4=O)c(=O)c3cc2NC(=O)c2coc(C3CC3)n2)CC1 | 
100 to 1000 |  | Cc1ccccc1N1CCN(c2cc(C(F)(F)F)c(C(=O)NCCCN3CCCC3=O)cc2NC(=O)c2coc(C3CC3)n2)CC1 | 
100 to 1000 | 100 to 1000 | CCc1cc(N2CCN(c3ccccc3C)CC2)c(NC(=O)c2coc(C3CC3)n2)cc1C(=O)NCCCN1CCCC1=O | 
< 100 | 100 to 1000 | Cc1ccccc1N1CCN(c2cc3c(cc2NC(=O)c2coc(C4CC4)n2)C(=O)N(CCCN2CCOC2=O)CC3)CC1 | 
> 5000 |  | Cc1ccccc1N1CCN(c2cc(Cl)c(C(=O)NCc3cccc(CN(C)C)c3)cc2NC(=O)c2ccco2)CC1 | 
1000 to 5000 |  | Cc1ccccc1N1CCN(c2cc(C3CC3)c(C(=O)NCCCN3CCCC3=O)cc2NC(=O)c2ccco2)CC1 | 
100 to 1000 | 100 to 1000 | Cc1ccccc1N1CCN(c2cc(N(C)C)c(C(=O)NCCCN3CCCC3=O)cc2NC(=O)c2coc(C3CC3)n2)CC1 | 
 | 1000 to 5000 | Cc1ccccc1N1CCN(c2cc3c(cc2NC(=O)c2coc(C4CC4)n2)C(=O)N(C2CCC[C@H](O)[C@@H]2O)CC3)CC1 (stereo partly shown) | 
100 to 1000 | 100 to 1000 | Cc1ccccc1N1CCN(c2cc(Cl)c(C(=O)NCCCc3nnnn3C)cc2NC(=O)c2coc(C3CC3)n2)CC1 | 
1000 to 5000 |  | Cc1ccc(F)cc1N1CCN(c2cc(Cl)c(C(=O)NCc3cccc(CN(C)C)c3)cc2NC(=O)c2ccco2)CC1 | 
100 to 1000 |  | COC(=O)[C@@H]1CCC[C@H](NC(=O)c2cc(NC(=O)c3coc(C4CC4)n3)c(N3CCN(c4ccccc4C)CC3)cc2F)C1 | 
< 100 |  | Cc1ccccc1N1CCN(c2cc(F)c(C(=O)N[C@H]3CCC[C@@H](C(=O)O)C3)cc2NC(=O)c2coc(C3CC3)n2)CC1 | 
